Reference: US6602664B2 (priority 1998, dated 2003)

Columns and labels:
mutant strains of HIV-1 = assay: microbe, parasite or virus in culture; assay type: cell-based; settings: for EC50 / Slope: human PBM cells
Method: Cells and viruses. […] Antimicrobial Agents Chemother 1992;36(11): 2423-2431.
Cell pellets were washed, centrifuged, lysed and the proviral DNA extracted as previously described. Cytotoxicity of the compounds was determined using the Promega Cell Titer 96 dye uptake assay (Madison, Wis.) in 1-2 day PHA-stimulated PBM cells after 5 days in culture. The median effective concentration (EC50) and inhibitory concentration (IC50) were derived from the computer-generated median effect plot of the dose-effect data, as described previously. […]
The mutant viruses tested are as follows: xxBRU Pitt (wild type HIV-1; the backbone used to prepare the other site directed mutagens); M184V (methionine to valine change at codon 184); K65R (lysine to arginine change at codon 65); T215Y (threonine to tyrosine change at codon 215); M184V/T215Y (virus with both mutations); 215/41 (virus with two mutations (threonine to tyrosine change at codon 215) and M4 1L (methionine to leucine change at codon 41)); 4X AZT (virus with four mutations associated with AZT therapy); D67N (aspartic acid to asparagine change at codon 67); K70R lysine to arginine change at codon 70); T215Y (defined as above); K219Q (lysine to glutamine change at codon 219); 964 pre (virus from a patient before they were on AZT therapy, and thus AZT sensitive); and 964 post (virus taken from the same patient after they were on AZT therapy, and thus is AZT resistant).

HIV = settings: U.S. Pat. No. 4,916,122; cited from earlier work
[1] = U.S. Pat. No. 4,916,122; cited from earlier work

[N-]=[N+]=N[C@H]1C[C@H](n2ccc(=O)[nH]c2=O)O[C@@H]1CO [CS-87, 3′-Azido-2′,3′-dideoxyuridine]
FI^50 (fold increase EC50) (mutant strains of HIV-1): 87
EC50 (mutant strains of HIV-1; 4X AZT Pitt.): 17.0 µM
Slope (mutant strains of HIV-1; 4X AZT Pitt.): 0.54
EC50 (mutant strains of HIV-1; 215/4I Pitt.): 19.1 µM
Slope (mutant strains of HIV-1; 215/4I Pitt.): 0.95
GFI^90 (fold increase EC90) (mutant strains of HIV-1; AZT-Post (964 post)): 14
EC50 (mutant strains of HIV-1; AZT-Post (964 post)): 63 µM
Slope (mutant strains of HIV-1; AZT-Post (964 post)): 1.64
EC50 (mutant strains of HIV-1; AZT-Sen. (964 pre)): 11.1 µM
Slope (mutant strains of HIV-1; AZT-Sen. (964 pre)): 0.65 ± 0.08
sensitivity of AZT-exposed virus (mutant strains of HIV-1; AZT-exposed virus): deceased sensitivity
EC50 (mutant strains of HIV-1; HIV-1/LAI): 4.7 µM
Slope (mutant strains of HIV-1; HIV-1/LAI): 0.70
EC50 (mutant strains of HIV-1; Human immunodeficiency virus 1, PBMC, 4X AZT Pitt.): 0.3 µM
EC50 (mutant strains of HIV-1; Human immunodeficiency virus 1, PBMC, 215/4I Pitt.): 2.1 µM
EC50 (mutant strains of HIV-1; Human immunodeficiency virus 1, PBMC, AZT-Post (964 post)): 16.5 µM
EC50 (mutant strains of HIV-1; Human immunodeficiency virus 1, PBMC, AZT-Sen. (964 pre)): 0.4 µM
EC50 (mutant strains of HIV-1; Human immunodeficiency virus 1, PBMC, HIV-1/LAI): 0.2 µM
EC50 (mutant strains of HIV-1; Human immunodeficiency virus 1, PBMC, K65R Pitt.): 1.1 µM
EC50 (mutant strains of HIV-1; Human immunodeficiency virus 1, PBMC, L74V Pitt.): 0.6 µM
EC50 (mutant strains of HIV-1; Human immunodeficiency virus 1, PBMC, M184V Pitt.): 0.6 µM
EC50 (mutant strains of HIV-1; Human immunodeficiency virus 1, PBMC, M184V/T215Y Pitt.): 1.1 µM
EC50 (mutant strains of HIV-1; Human immunodeficiency virus 1, PBMC, T215Y Pitt.): 0.3 µM
EC50 (mutant strains of HIV-1; Human immunodeficiency virus 1, PBMC, xxBRU Pitt. (wild type)): 1.1 µM
EC50 (mutant strains of HIV-1; K65R Pitt.): 12 µM
Slope (mutant strains of HIV-1; K65R Pitt.): 0.92 ± 0.07
EC50 (mutant strains of HIV-1; L74V Pitt.): 3.8 µM
Slope (mutant strains of HIV-1; L74V Pitt.): 1.18 ± 0.10
EC50 (mutant strains of HIV-1; M184V Pitt.): 2.4 µM
Slope (mutant strains of HIV-1; M184V Pitt.): 1.55
EC50 (mutant strains of HIV-1; M184V/T215Y Pitt.): 5.9 µM
Slope (mutant strains of HIV-1; M184V/T215Y Pitt.): 1.40
EC50 (mutant strains of HIV-1; T215Y Pitt.): 2.7 µM
Slope (mutant strains of HIV-1; T215Y Pitt.): 1.00 ± 0.11
sensitivity of site directed mutant viruses (mutant strains of HIV-1; mutations at other than the 70 codon in the RT region): remain sensitive
EC50 (mutant strains of HIV-1; xxBRU Pitt. (wild type)): 7.3 µM
Slope (mutant strains of HIV-1; xxBRU Pitt. (wild type)): 1.16
anti-HIV activity (HIV): significant anti-HIV activity
toxicity compared with AZT [1]: lower toxicity than AZT
